SMILES strings stand for the structures. A value given as a limit tells only on which side of the number the result lay.

For the assay, the target named is T1, human CRHR2-alpha (Homo sapiens, UniProt Q13324).
T1 sequence (Q13324 1-411): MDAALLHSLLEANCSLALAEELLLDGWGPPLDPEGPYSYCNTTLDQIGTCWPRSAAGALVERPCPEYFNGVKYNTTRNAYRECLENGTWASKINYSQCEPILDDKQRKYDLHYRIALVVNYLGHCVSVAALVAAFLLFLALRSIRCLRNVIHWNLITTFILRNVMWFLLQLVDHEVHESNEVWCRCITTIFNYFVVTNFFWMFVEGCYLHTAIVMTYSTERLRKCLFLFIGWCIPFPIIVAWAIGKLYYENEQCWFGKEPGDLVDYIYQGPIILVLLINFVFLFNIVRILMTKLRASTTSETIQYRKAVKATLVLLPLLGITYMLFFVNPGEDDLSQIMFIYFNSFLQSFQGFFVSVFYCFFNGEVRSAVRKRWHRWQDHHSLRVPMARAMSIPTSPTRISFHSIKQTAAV
The experiment in a line: cAMP functional assay for human CRHR2 (LANCE Ultra cAMP, TR-FRET). The format is cell-based. Conditions: CHO-K1 cells expressing human CRHR2-alpha, agonist human urocortin2 at EC80, cAMP; read-out: IC50 against CRHR2. The essentials: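 Inhibition of agonist-driven cAMP was assessed in recombinant CHO-K1 cells at 25° C, using 30 min compound pretreatment and 30 min stimulation with EC80 human urocortin2 (CRHR2) or CRF (CRHR1). IC50 came from dose-response fitting.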
For the compound `CNc1ccc(-n2c(=O)n(C[C@H]3CC[C@H](NC(=O)c4cc(Cl)cnc4C)CC3)c3cc(F)ccc32)cn1` [Example 624, 5-chloro-N-((1r,4r)-4-((6-fluoro-3-(6-(methylamino)pyridin-3-yl)-2-oxo-2,3-dihydro-1H-benzo[d]imidazol-1-yl)methyl)cyclohexyl)-2-methylnicotinamide], the half-maximal inhibitory concentration (IC50) (in general, the point on the concentration scale where inhibition reaches its midpoint) was under 300 nM.
For `CNc1ccc(-n2c(=O)n(C[C@H]3CC[C@H](NC(=O)c4cc(Cl)cnc4C)CC3)c3ccc(F)cc32)cn1` [Example 625, 5-chloro-N-((1r,4r)-4-((5-fluoro-3-(6-(methylamino)pyridin-3-yl)-2-oxo-2,3-dihydro-1H-benzo[d]imidazol-1-yl)methyl)cyclohexyl)-2-methylnicotinamide], the IC50 was under 300 nM.
Consider `CNc1ccc(-n2c(=O)n(C[C@H]3CC[C@H](NC(=O)c4cc(Cl)cnc4C(F)F)CC3)c3ccc(F)cc32)cn1` [Example 626, 5-chloro-2-(difluoromethyl)-N-((1r,4r)-4-((5-fluoro-3-(6-(methylamino)pyridin-3-yl)-2-oxo-2,3-dihydro-1H-benzo [d]imidazol-1-yl)methyl)cyclohexyl)nicotinamide], for which the IC50 was under 300 nM.
To `N#Cc1cc(F)ccc1-n1c(=O)n(C[C@H]2CC[C@H](NC(=O)c3cc(Cl)cnc3C(F)F)CC2)c2ccccc21` [Example 627, 5-chloro-N-((1r,4r)-4-((3-(2-cyano-4-fluorophenyl)-2-oxo-2,3-dihydro-1H-benzo[d]imidazol-1-yl)methyl)cyclohexyl)-2-(difluoromethyl)nicotinamide] belongs under 300 nM; to `CNC(=O)c1ccc(-n2c(=O)n(C[C@H]3CC[C@H](NC(=O)c4cc(Cl)cnc4C(F)F)CC3)c3cccc(F)c32)cn1` [Example 628, 5-(3-(((1 r,4r)-4-(5-chloro-2-(difluoromethyl)nicotinamido)cyclohexyl)methyl)-7-fluoro-2-oxo-2,3-dihydro-1H-benzo [d]imidazol-1-yl)-N-methylpicolinamide], under 300 nM; to `O=C(N[C@H]1CC[C@H](Cn2c(=O)n(-c3ccccc3Cl)c3cccnc32)CC1)c1cc(Cl)cnc1C(F)F` [Example 630, 5-chloro-N-((1r,4r)-4-((1-(2-chlorophenyl)-2-oxo-1H-imidazo[4,5-b]pyridin-3(2H)-yl)methyl)cyclohexyl)-2-(difluoromethyl)nicotinamide], under 300 nM.
The value for `COc1ccc(Cl)c(-n2c(=O)n(C[C@H]3CC[C@H](NC(=O)c4cc(Cl)cnc4C(F)F)CC3)c3cnccc32)c1` [Example 631, 5-chloro-N-((1r,4r)-4-((1-(2-chloro-5-methoxyphenyl)-2-oxo-1H-imidazo[4,5-c]pyridin-3(2H)-yl)methyl)cyclohexyl)-2-(difluoromethyl) nicotinamide] was under 300 nM; that for `Cc1ncc(Cl)cc1C(=O)N[C@H]1CC[C@H](Cn2c(=O)n(-c3ccc(-c4c[nH]nn4)cc3)c3ccccc32)CC1` [Example 633, N-((1r,4r)-4-((3-(4-(1H-1,2,3-triazol-4-yl)phenyl)-2-oxo-2,3-dihydro-1H-benzo[d]imidazol-1-yl)methyl)cyclohexyl)-5-chloro-2-methylnicotinamide] was under 300 nM; that for `Cc1ncc(Cl)cc1C(=O)N[C@H]1CC[C@H](Cn2c(=O)n(-c3ccc(-c4cocn4)cc3)c3ccccc32)CC1` [Example 635, 5-chloro-2-methyl-N-((1r,4r)-4-((3-(4-(oxazol-4-yl)phenyl)-2-oxo-2,3-dihydro-1H-benzo [d]imidazol-1-yl)methyl)cyclo-hexyl)nicotinamide] was under 300 nM.
Turning to `Cc1ncc(Cl)cc1C(=O)N[C@H]1CC[C@H](Cn2c(=O)n(-c3cncc(-n4cccn4)c3)c3ccccc32)CC1` [Example 636, N-((1r,4r)-4-((3-(5-(1H-pyrazol-1-yl)pyridin-3-yl)-2-oxo-2,3-dihydro-1H-benzo[d]imidazol-1-yl)methyl)cyclohexyl)-5-chloro-2-methylnicotinamide], the IC50 is under 300 nM.
To `Cc1ncc(Cl)cc1C(=O)N[C@H]1CC[C@H](Cn2c(=O)n(-c3ccc(-n4cccn4)nc3)c3ccccc32)CC1` [Example 637, N-((1r,4r)-4-((3-(6-(1H-pyrazol-1-yl)pyridin-3-yl)-2-oxo-2,3-dihydro-1H-benzo[d]imidazol-1-yl)methyl)cyclohexyl)-5-chloro-2-methylnicotinamide] belongs under 300 nM; to `O=C(N[C@H]1CC[C@H](Cn2c(=O)n(-c3cnc(OCCO)c(F)c3)c3ccccc32)CC1)c1cc(Cl)cnc1C(F)F` [Example 638, 5-chloro-2-(difluoromethyl)-N-((1r,4r)-4-((3-(5-fluoro-6-(2-hydroxyethoxy)pyridin-3-yl)-2-oxo-2,3-dihydro-1H-benzo[d]imidazol-1-yl)methyl)cyclohexyl)nicotinamide], under 300 nM.
The value for `CNc1ncc(-n2c(=O)n(C[C@H]3CC[C@H](NC(=O)c4cc(Cl)cnc4C(F)F)CC3)c3ccccc32)cc1F` [Example 639, 5-chloro-2-(difluoromethyl)-N-((1r,4r)-4-((3-(5-fluoro-6-(methylamino)pyridin-3-yl)-2-oxo-2,3-dihydro-1H-benzo[d]imidazol-1-yl)methyl)cyclohexyl)nicotinamide] was under 300 nM; that for `O=C(N[C@H]1CC[C@H](Cn2c(=O)n(-c3ccc(N4CCNC4=O)nc3)c3ccccc32)CC1)c1cc(Cl)cnc1C(F)(F)F` [Example 640, 5-chloro-N-((1r,4r)-4-((2-oxo-3-(6-(2-oxoimidazolidin-1-yl)pyridin-3-yl)-2,3-dihydro-1H-benzo[d]imidazol-1-yl)methyl)cyclohexyl)-2-(trifluoromethyl) nicotinamide] was under 300 nM; that for `O=C(N[C@H]1CC[C@H](Cn2c(=O)n(-c3ccc(N4CCCC4=O)nc3)c3ccccc32)CC1)c1cc(Cl)cnc1C(F)(F)F` [Example 641, 5-chloro-N-((1r,4r)-4-((2-oxo-3-(6-(2-oxopyrrolidin-1-yl)pyridin-3-yl)-2,3-dihydro-1H-benzo[d]imidazol-1-yl)methyl)cyclohexyl)-2-(trifluoromethyl) nicotinamide] was under 300 nM.
The value for `CCC(=O)Nc1ccc(-n2c(=O)n(C[C@H]3CC[C@H](NC(=O)c4cc(Cl)cnc4C(F)(F)F)CC3)c3ccccc32)cn1` [Example 643, 5-chloro-N-((1r,4r)-4-((2-oxo-3-(6-propionamido-pyridin-3-yl)-2,3-dihydro-1H-benzo[d]imidazol-1-yl)methyl)cyclohexyl)-2-(tri-fluoromethyl)nicotinamide] was under 300 nM; that for `Cc1nc2cc(-n3c(=O)n(C[C@H]4CC[C@H](NC(=O)c5cc(Cl)cnc5C)CC4)c4ccccc43)ccc2s1` [Example 645, 5-chloro-2-methyl-N-((1r,4r)-4-((3-(2-methylbenzo[d]thiazol-5-yl)-2-oxo-2,3-dihydro-1H-benzo[d]imidazol-1-yl)methyl)cyclohexyl) nicotinamide] was under 300 nM.
On to `CNc1ccc(-n2c(=O)n(C[C@H]3CC[C@H](NC(=O)c4cc(Cl)cnc4C)CC3)c3ccccc32)cc1` [Example 646, 5-chloro-2-methyl-N-((1r,4r)-4-((3-(4-(methylamino)phenyl)-2-oxo-2,3-dihydro-1H-benzo[d]imidazol-1-yl)methyl)cyclohexyl)nicotinamide], for which the IC50 was under 300 nM.

Source of the values: patent US11802120B2, “Fused cyclic urea derivatives as CRHR2 antagonist” (RaQualia Pharma Inc., priority 2018, dated 2023).
